Test results: US10813929B2, “Treating cancer with ATR inhibitors” (VERTEX PHARMACEUTICALS INCORPORATED, priority 2011, dated 2020)

Tests used:
[1] = test system: phosphorylation of Chk1 (Ser 345); assay: Western blot analysis of Chk1 inhibition; type: cell-based; details: 1 μM VE-821; after gemcitabine (100 nM), radiation (6 Gy) or both; FIG. 1 panel A
Protocol: Cells were treated with 100 nM gemcitabine for 1 h, 1 μM VE-821 was added 1 h later and cells were irradiated (6 Gy) 1 h after that. Drugs were left for the duration of the experiment and cells were lysed at 2 h post-irradiation and subjected to Western blot analysis. MiaPaCa-2 and PSN-1 cells were exposed to gemcitabine and/or 1 μM VE-821 drug 1 h prior to irradiation with a single dose of 6 Gy. Cells were lysed in RIPA buffer 2 h post-irradiation and subjected to SDS-PAGE electrophoresis and immunoblotting. Chemoluminescence (SuperSignal, Millipore) and film exposure was used to detect antibody binding. Exposed film was digitized and figures were assembled using Microsoft PowerPoint.

[2] = test system: PSN-1, MiaPaCa-2 and PancM cells; assay: Clonogenic survival assay, pancreatic cancer cells; type: cell-based
Protocol: PSN-1 cells were plated as single cells, treated with 1 μM VE-821 at different time points in relation to 4 Gy irradiation and assessed for colony formation after 10 days. The survival fraction at 4 Gy for each of the treatment schedules was determined by taking into account the relevant plating efficiency of unirradiated cells. Cells were treated with 1 μM VE-821 4 h after plating and 1 h prior to irradiation. Drug was removed after 72 h and colony-forming ability was assessed after 10 to 21 days. (n=3). *, P<0.05; **, P<0.01 over DMSO-treated control. A) clonogenic survival curves of cells treated with 1 μM VE-821 and irradiation under hypoxic conditions. Plated cells were transferred to hypoxia (0.5% O2) and acclimatised for 6 h. VE-821 (1 μM) was then added at 1 h prior to irradiation and left for 72 h upon which the medium was replaced. Cells were transferred to normoxia at 1 h post-irradiation. B) clonogenic survival of cells after irradiation with 6 Gy and treatment with 1 μM VE-821 in oxic and hypoxic (0.5% O2) conditions, as described above and in FIG. 1 (n=3). *, P<0.05; **, P<0.01; ***, P<0.001 over DMSO-treated control. A) clonogenic survival of cells treated with gemcitabine and 1 μM VE-821. Cells were treated with increasing concentrations of gemcitabine for 24 h followed by 72 h treatment of 1 μM VE-821. Colony forming ability was assessed after 10 to 21 days. B) clonogenic survival of cells treated with gemcitabine in hypoxia. Plated cells were transferred to hypoxia (0.5% O2) and acclimatised for 6 h. Cells were then treated with increasing concentrations of gemcitabine for 24 h followed by 72 h treatment of 1 μM VE-821. Hypoxic cells were transferred to normoxia 1 h after VE-821 addition. C) clonogenic survival after treatment with 20 nM gemcitabine and VE-821 in oxic and hypoxic (0.5% O2) conditions, as described above. D) clonogenic survival of cells treated with gemcitabine and irradiation. PSN-1 and MiaPaCa-2 cells were treated with 5 nM or 10 nM gemcitabine, respectively, for 24 h, medium was then replaced and 1 μM VE-821 was added from 1 h prior to 72 h post 4 Gy irradiation. Colony forming ability was assessed after 10 to 21 days (n=3). *, P<0.05; **, P<0.01; ***, P<0.001 over DMSO-treated control. Logarithmically growing cells were plated in triplicate in 6-well tissue culture dishes under oxic (21% O2) or hypoxic conditions (0.5% O2) using an InVivo2 300 chamber (Ruskinn Technology, UK). […] Cells were incubated for 10-21 days until colonies were stained with 0.5% crystal violet and counted in a CellCount automated colony counter (Oxford Optronix). Clonogenic survival was calculated and data were fitted in the GraphPad Prism 4.0 (GraphPad Software, CA).

[3] = test system: PSN1 pancreatic cancer xenografts; assay: PSN1 pancreatic cancer xenograft model with gemcitabine; type: in vivo, female nude MF1 mice; details: VE-822 PO q2d 10, 30 or 60 mg/kg with gemcitabine 15 mg/kg IP q3d; FIG. 21
Protocol: PSN1 cells (1×10^6 cells per mouse) were implanted as a mixture in Matrigel (100 μl per mouse) into the flank of female nude MF1 mice and grown to a volume of about 200 mm^3 prior to compound administration. Gemcitabine was dosed alone at 15 mg/kg ip, once every three days (ip, q3d) in 0.5% methylcellulose in water for a maximum of 10 cycles. VE-822 was dosed, as a suspension in 0.5% methylcellulose in water, alone at either 10, 30 or 60 mg/kg po every other day for 28 days (po q2d). Three combination groups received gemcitabine at 15 mg/kg plus VE-822 either at 10, 30 or at 60 mg/kg po on the same schedule as the single agent groups. A control group received vehicle alone (0.5% methylcellulose ip q3d). All drug treatment was stopped on Day 30. Vehicle and VE-822 groups were sacrificed on day 13 due to excessive tumor volumes.
Data shown are mean tumor volume±SEM (n=8 per group). Red filled circles are VE-822 treatment; Black filled squares are vehicle treatment; Green filled circles are gemcitabine treatment; Blue filled circles are gemcitabine and VE-822 (10 mg/kg) treatment; Red filled circles are gemcitabine and VE-822 (30 mg/kg) treatment; Pink filled circles are gemcitabine and VE-822 (60 mg/kg) treatment;

Row | SMILES | phosphorylation of Chk1 (Ser 345) [1] | radiosensitisation under hypoxic conditions (clonogenic survival) ([2]; 1 μM VE-821, hypoxia 0.5% O2, FIG. 2 panels A-B) | sensitisation to gemcitabine (clonogenic survival) ([2]; 1 μM VE-821 for 72 h after 24 h gemcitabine, oxic and hypoxic (0.5% O2), FIG. 3 panels B-C) | potentiation of chemoradiation (clonogenic survival) ([2]; PSN-1 and MiaPaCa-2, 5 or 10 nM gemcitabine, 1 μM VE-821, 4 Gy, FIG. 3 panel D) | surviving fraction after irradiation ([2]; PSN-1 cells, 1 μM VE-821, 4 Gy, effect increased as drug incubation time after irradiation was extended, FIG. 1 panel C) | antitumor effects of gemcitabine (tumor volume) [3]
1 | CS(=O)(=O)c1ccc(-c2cnc(N)c(C(=O)Nc3ccccc3)n2)cc1 [VE-821] | inhibits phosphorylation of Chk1 (Ser 345) | radiosensitises tumour PSN-1, MiaPaCa-2 and PancM cells under hypoxic conditions | sensitises normoxic and hypoxic cancer cells to gemcitabine | potentiates the effect of chemoradiation | a decrease in surviving fraction was observed | 
2 | CNCc1ccc(-c2cc(-c3nc(-c4ccc(S(=O)(=O)C(C)C)cc4)cnc3N)on2)cc1 [VE-822] |  |  |  |  |  | enhances the antitumor effects of gemcitabine
